In patent US6506766B1 (Abbott Laboratories, priority 1998, dated 2003):
Where two headings read alike, the source gives them in different places.

Assays:
[1] = biological target: T1, human progesterone receptor-A [PRA] isoform (Homo sapiens, UniProt P06401); test: Radioligand binding with human progesterone receptor cytosol ([3H]-progesterone competition); conditions: read-out: Ki (nM) PR
T1 construct: host or cells: insect SF21 cells (baculovirus)
T1 sequence (P06401 1-769 isoform P06401-2): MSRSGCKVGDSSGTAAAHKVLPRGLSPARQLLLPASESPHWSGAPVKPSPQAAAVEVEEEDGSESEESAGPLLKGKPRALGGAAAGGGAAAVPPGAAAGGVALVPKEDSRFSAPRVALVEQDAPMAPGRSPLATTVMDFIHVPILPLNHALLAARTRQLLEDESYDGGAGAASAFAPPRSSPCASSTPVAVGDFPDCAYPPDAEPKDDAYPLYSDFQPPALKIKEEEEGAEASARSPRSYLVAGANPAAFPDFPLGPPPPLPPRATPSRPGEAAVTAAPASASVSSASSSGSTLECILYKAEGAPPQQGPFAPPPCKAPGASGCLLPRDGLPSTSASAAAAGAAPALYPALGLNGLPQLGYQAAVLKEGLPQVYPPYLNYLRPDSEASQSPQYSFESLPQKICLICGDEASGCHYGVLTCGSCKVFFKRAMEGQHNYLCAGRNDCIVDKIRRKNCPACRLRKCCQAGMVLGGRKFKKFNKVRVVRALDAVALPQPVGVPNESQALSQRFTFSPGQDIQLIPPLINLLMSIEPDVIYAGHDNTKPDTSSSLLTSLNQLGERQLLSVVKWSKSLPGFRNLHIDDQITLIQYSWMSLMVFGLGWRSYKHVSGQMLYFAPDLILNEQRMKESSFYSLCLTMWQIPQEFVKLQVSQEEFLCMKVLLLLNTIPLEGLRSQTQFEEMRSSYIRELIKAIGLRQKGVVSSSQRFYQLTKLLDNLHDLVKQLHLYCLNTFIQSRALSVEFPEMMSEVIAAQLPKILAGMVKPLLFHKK

[2] = biological target: T2, human glucocorticoid receptor-α [GRX] isoform (Homo sapiens, UniProt P04150); test: Radioligand binding with human glucocorticoid receptor cytosol ([3H]-dexamethasone competition); conditions: read-out: Ki (nM) GR
T2 construct: host or cells: insect SF21 cells (baculovirus)
T2 sequence (P04150 1-777): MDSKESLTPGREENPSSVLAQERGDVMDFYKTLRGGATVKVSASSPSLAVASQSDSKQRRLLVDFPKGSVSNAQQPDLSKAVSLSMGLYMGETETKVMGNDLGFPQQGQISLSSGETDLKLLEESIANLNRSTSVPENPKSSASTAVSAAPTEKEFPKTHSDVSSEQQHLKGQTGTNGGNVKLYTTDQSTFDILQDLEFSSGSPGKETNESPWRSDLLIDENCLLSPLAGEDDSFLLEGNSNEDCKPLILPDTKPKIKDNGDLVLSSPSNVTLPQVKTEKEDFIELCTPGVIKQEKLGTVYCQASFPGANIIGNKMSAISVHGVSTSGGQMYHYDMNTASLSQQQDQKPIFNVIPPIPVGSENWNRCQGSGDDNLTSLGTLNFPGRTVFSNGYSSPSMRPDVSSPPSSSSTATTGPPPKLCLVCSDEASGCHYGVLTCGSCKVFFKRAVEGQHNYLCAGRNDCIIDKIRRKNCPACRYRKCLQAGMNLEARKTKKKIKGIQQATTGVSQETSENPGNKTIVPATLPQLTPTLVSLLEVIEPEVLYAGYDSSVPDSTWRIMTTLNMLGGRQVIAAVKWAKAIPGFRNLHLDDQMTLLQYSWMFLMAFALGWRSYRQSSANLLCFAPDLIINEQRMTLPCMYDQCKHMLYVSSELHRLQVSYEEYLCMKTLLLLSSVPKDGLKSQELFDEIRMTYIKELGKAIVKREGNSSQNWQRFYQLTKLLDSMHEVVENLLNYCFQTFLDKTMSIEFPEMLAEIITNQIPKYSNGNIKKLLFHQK

[3] = PRA cytosol expressed in insect SF21 cells, [3H]Prog ~0.8 nM, 4° C. overnight, Ki by Cheng-Prusoff, KL ~4.5 nM
[4] = GRX cytosol expressed in insect SF21 cells, [3H]-Dex ~0.9 nM, 4° C. overnight, Ki by Cheng-Prusoff, KL ~[…]

| Ki [1, 3] [nM] | Ki [2, 4] [nM] | Molecule | Ki [1] [nM] | Ki [2] [nM] |
| --- | --- | --- | --- | --- |
| 10500 | 14 | CCC1Oc2cccc(OC)c2-c2ccc3c(c21)C(C)=CC(C)(C)N3 (stereo not shown) [Example 60, 5-Ethyl-2,5-dihydro-10-methoxy-2,2,4-trimethyl-1H-[1]benzopyrano[3,4-f]quinoline] | – | – |
| 486 | 0.84 | COc1ccc(C2Oc3ccc(O)c(OC)c3-c3ccc4c(c32)C(C)=CC(C)(C)N4)s1 (stereo not shown) [Example 268, 2,5-Dihydro-9-hydroxy-10-methoxy-2,2,4-trimethyl-5-(5-methoxy-2-thienyl)-1H-[1]benzopyrano[3,4-f]quinoline] | – | – |
| > 10000 | 215 | CCOC(=O)c1cccc(C2Oc3cccc(OC)c3-c3ccc4c(c32)C(C)=CC(C)(C)N4)c1 (stereo not shown) [Example 107] | – | – |
| 61 | 0.21 | CC1=CC(C)(C)Nc2ccc3c(c21)/C(=C/c1ccccn1)Oc1ccc(O)c(Cl)c1-3 [Example 368, Z-10-Chloro-9-hydroxy-5-(2-picolinylidenyl)-2,2,4-trimethyl-2,5-dihydro-1H-[1]benzopyrano[3,4-f]quinoline] | – | – |
| ≥ 10000 | 22 | CCOC(=O)NCC1Oc2cccc(OC)c2-c2ccc3c(c21)C(C)=CC(C)(C)N3 (stereo not shown) [Example 207] | – | – |
| 3940 | 5 | C=CCC1Oc2cccc(OC)c2-c2ccc3c(c21)C(CC)=CC(C)(C)N3 (stereo not shown) [Example 363, 2,5-Dihydro-10-methoxy-2,2-dimethyl-4-ethyl-5-allyl-1H-[1]benzopyrano[3,4-f]quinoline] | – | – |
| 65.1 | 1 | CC1=CC(C)(C)Nc2ccc3c(c21)C(c1ccccc1)Oc1ccc(O)c(Cl)c1-3 (stereo not shown) [Example 217, 10-Chloro-9-hydroxy-5-phenyl-2,2,4-trimethyl-1H-2,5-dihydro-[1]benzopyrano[3,4-f]quinoline] | – | – |
| 16.4 | 1.8 | CCCCC1Oc2ccc(O)c(Cl)c2-c2ccc3c(c21)C(C)=CC(C)(C)N3 (stereo not shown) [Example 407, 2,5-Dihydro-9-hydroxy-10-chloro-2,2,4-trimethyl-5-butyl-1H-[1]benzopyrano[3,4-f]quinoline] | – | – |
| ≥ 10000 | 5.3 | COc1cccc2c1-c1ccc3c(c1C(c1cc(F)c(F)c(F)c1)O2)C(C)=CC(C)(C)N3 (stereo not shown) [Example 211] | – | – |
| 169 | 0.65 | C=CCCCC1Oc2ccc(O)c(OC)c2-c2ccc3c(c21)C(C)=CC(C)(C)N3 (stereo not shown) [Example 387] | – | – |
| 60.8 | 0.22 | CC1=CC(C)(C)Nc2ccc3c(c21)C(=Cc1ccccn1)Oc1ccc(O)c(Cl)c1-3 [Example 413, 9-Hydroxy-10-chloro-5-([2-pyridyl]methylene)-2,2,4-trimethyl-1H-2,5-dihydro-[1]benzopyrano[3,4-f]quinoline] | – | – |
| ≥ 10000 | 19.2 | CCOc1cccc2c1-c1ccc3c(c1C(c1cc(Cl)cc(Cl)c1)O2)C(C)=CC(C)(C)N3 (stereo not shown) [Example 79, 5-(3,5-Dichlorophenyl)-10-ethoxy-2,5-dihydro-2,2,4-trimethyl-1H-[1]benzopyrano[3,4-f]quinoline] | – | – |
| 2750 | 9.5 | COC(=O)/C=C/C1Oc2cccc(OC)c2-c2ccc3c(c21)C(C)=CC(C)(C)N3 (stereo not shown) [Example 179, (E) 2,5-Dihydro-10-methoxy-5-(2-carbomethoxy-1-ethenyl)-2,2,4-trimethyl-1H-[1]benzopyrano[3,4-f]quinoline] | – | – |
| 2770 | 5.8 | C=C(CCl)CC1Oc2cccc(OC)c2-c2ccc3c(c21)C(C)=CC(C)(C)N3 (stereo not shown) [Example 48, 5-[2-(Chloromethyl)-2-propenyl]-2,5-dihydro-10-methoxy-2,2,4-trimethyl-1H-[1]benzopyrano[3,4-f]quinoline] | – | – |
| 9140 | 95.7 | C=CCC1Oc2cccc(OC)c2-c2ccc3c(c21)C(C)=CC(CC)(CC)N3 (stereo not shown) [Example 361, 2,5-Dihydro-10-methoxy-2,2-diethyl-4-methyl-5-allyl-1H-[1]benzopyrano[3,4-f]quinoline] | – | – |
| 6080 | 134 | CC1=CC(C)(C)Nc2ccc3c(c21)C(=Cc1ccccc1)Oc1ccc(O)c(Cl)c1-3 [Example 401, 9-Hydroxy-10-chloro-5-(phenylmethylene)-2,2,4-trlimethyl-1H-2,5-dihydro-[1]benzopyrano[3,4-f]quinoline] | – | – |
| 15300 | 6 | COc1cccc2c1-c1ccc3c(c1C(c1cccc(OCC4CC4)c1)O2)C(C)=CC(C)(C)N3 (stereo not shown) [Example 88, 5-[3-(Cyclopropylmethoxy)phenyl]-2,5-dihydro-10-methoxy-2,2,4-trimethyl-1H-[1]benzopyrano[3,4-f]quinoline] | – | – |
| ≥ 10000 | 6.5 | COc1ccc(C2Oc3cccc(OC)c3-c3ccc4c(c32)C(C)=CC(C)(C)N4)cc1 (stereo not shown) [Example 22, 2,5-Dihydro-10-methoxy-5-(4-methoxyphenyl)-2,2,4-trimethyl-1H-[1]benzopyrano[3,4-f]quinoline] | – | – |
| 5680 | 4.3 | CC1=CC(C)(C)Nc2ccc3c(c21)C(c1ccccc1)Oc1cccc(O)c1-3 (stereo not shown) [Example 7, 2,5-Dihydro-2,2,4-trimethyl-5-phenyl-1H-[1]benzopyrano[3,4-f]quinolin-10-ol] | – | – |
| ≥ 10000 | 31 | COc1cccc2c1-c1ccc3c(c1C(c1ccc(N(C)C)cc1)O2)C(C)=CC(C)(C)N3 (stereo not shown) [Example 39, 4-(2,5-Dihydro-10-methoxy-2,2,4-trimethyl-1H-[1]benzopyrano[3,4-f]quinolin-5-yl)-N,N-dimethylbenzenamine] | – | – |
| 66.4 | 0.39 | COc1c(O)ccc2c1-c1ccc3c(c1[C@H]([C@@H]1C=CCCC1)O2)C(C)=CC(C)(C)N3 [Example 272, (−)(5S,3′S)2,5-Dihydro-9-hydroxy-10-methoxy-2,2,4-trimethyl-5-(3-cyclohexenyl)-1H-[1]benzopyrano[3,4-f]quinoline] | – | – |
| – | – | 2,5-Dihydro-9-hydroxy-10-methoxy-5-propyl-2,2,4-trimethyl-1H-[1]benzopyrano[3,4-f]quinoline [Example 245] | 119 | 0.95 |
| ≥ 10000 | 6.1 | C=CCc1cc(C)cc(C2Oc3cccc(OC)c3-c3ccc4c(c32)C(C)=CC(C)(C)N4)c1 (stereo not shown) [Example 109, 2,5-Dihydro-10-methoxy-2,2,4-trimethyl-5-[3-methyl-5-(2-propenyl)phenyl]-1H-[1]benzopyrano[3,4-f]quinoline] | – | – |
| ≥ 10000 | 288 | COc1cccc2c1-c1ccc3c(c1C(CC(=O)N(C)OC)O2)C(C)=CC(C)(C)N3 (stereo not shown) [Example 185, Methyl 2-(2,5-Dihydro-10-methoxy-2,2,4-trimethyl-1H-[1]benzopyrano[3,4-f]quinolin-5-yl)acetyl Hydroxamate] | – | – |
| 5630 | 8.16 | COc1cccc2c1-c1ccc3c(c1C([C@@H]1C=C(CSC)CCC1)O2)C(C)=CC(C)(C)N3 (stereo in doubt) [Example 166] | – | – |
| ≥ 10000 | 23 | COc1cccc2c1-c1ccc3c(c1C(/C=C/COC(=O)N(C)C)O2)C(C)=CC(C)(C)N3 (stereo not shown) [Example 182, (E) 2,5-Dihydro-10-methoxy-5-(3-(N,N-dimethylaminocarbonyloxy)-1-propenyl)-2,2,4-trimethyl-1H-[1]benzopyrano[3,4-f]quinoline] | – | – |
| ≥ 10000 | 5.2 | COc1cccc2c1-c1ccc3c(c1C(c1cccc(SC)c1)O2)C(C)=CC(C)(C)N3 (stereo not shown) [Example 103] | – | – |
| 102 | 0.39 | COc1c(O)ccc2c1-c1ccc3c(c1[C@H]([C@@H]1C=CCC1)O2)C(C)=CC(C)(C)N3 [Example 252] | – | – |
| ≥ 10000 | 17 | C=CCNc1cc(C)cc(C2Oc3cccc(OC)c3-c3ccc4c(c32)C(C)=CC(C)(C)N4)c1 (stereo not shown) [Example 115] | – | – |
